Laboratory results as given in US8530183B2, “Zinc sensors for cellular imaging” (The Board of Regents of the University of Texas System, priority 2010, dated 2013).
Several values for one entry are separate records, joined by “and”; a condition that tells them apart may be missing. Equal values may be shown once. Entries after “also recorded” stand apart in the source; their conditions may differ. Read-outs that look alike come from different tables or passages of the source.

Experiments:
INS-1 cells = experiment: Response of membrane-anchored ZIMIR to extracellular Zn2+ and decay upon Zn2+ washout; assay type: cell-based, rat; conditions: INS-1 cells labeled with ZIMIR, EDTA 10 μM plus DPAS at low micromolar concentrations
Experimental: FIGS. 5A-B. Membrane anchored ZIMIR reports changes of [Zn^2+]e. (FIG. 5A) Example fluorescence images (Excitation 488±7.5 nm, emission 530±20 nm) of INS-1 cells labeled with ZIMIR at different [Zn^2+]e. (FIG. 5B) Quantification of the average ZIMIR fluorescence intensity along the plasma membrane (IZIMIR(PM)).
(FIG. 7A) Time courses of IZIMIR(PM) decay after washing INS-1 cells (initially bathed in FIBS containing 1 μM Zn^2+) with HBS containing EDTA (10 μM) and DPAS (0-8 μM). (FIG. 7B) ZIMIR imaging of insulin/Zn^2+ release of MIN6 cells bathed in SAB containing EDTA (10 μM) and DPAS (4 μM). Time courses of IZIMIR(PM) fluctuation of four separate regions of interest (ROI 1-4) and example ZIMIR images at different time points were shown (a-e; arrow heads highlighting local ZIMIR increases in separate ROIs at different time).
To characterize the response of membrane anchored ZIMIR to changes of extracellular Zn^2+ concentration ([Zn^2+]), the inventors varied [Zn^2+]e from low nanomolar to micromolar, using Zn^2-1 buffers containing nitrilotriacetic acid (for [Zn^2+]e<100 nM) (Hirano et al., 2000) or histidine (for [Zn^2+]e. 100 nM) (Hauser and Tsien, 2007). After recording fluorescence images at different [Zn^2+]e levels, the inventors washed cells with a nominally Zn^2+ free SAB containing 0.2 mM DPAS and followed the decay of IZIMIR(PM).
Upon membrane depolarization, ZIMIR signal increased immediately and reached a plateau before it gradually declined (FIGS. 6E-F). Unexpectedly, however, in some occasions, ZIMIR signal remained elevated even after the inventors lowered KCl concentration to the resting level (5 mM) (FIG. 9). […] In INS-1 beta cells labeled with ZIMIR, after recording ZIMIR fluorescence in solutions containing ˜1 μM of Zn2+, the inventors perifused cells with a nominally Zn^2+-free solution containing only EDTA (10 μM), or with both EDTA (10 μM) and different concentrations of DPAS.

[1] = Competition assay of Zn2+ chelation kinetics (ZIMIR-C2 fluorescence decline after adding EDTA or DPAS); conditions: physiological salines, ZIMIR-C2 1 μM in Hanks Balanced Saline Solution
Experimental: FIG. 10. […] In this competition assay, fluorescence intensity (Ex 490 nm, Em 525 nm) of ZIMIR-C2 (1 μM) in Hanks Balanced Saline Solution was recorded. The rate of fluorescence intensity decline after adding EDTA or DPAS reflects the kinetics of EDTA/Zn^2I or DPAS/Zn^2+ complexation.

[2] = FluoZin-3, background; read-out: Zn^2+ dissociation constant Kd(Zn^2+); cited from earlier work
[3] = FluoZin-3, background; read-out: Kd(Ca^2+); cited from earlier work
[4] = Zn2+ titration of ZIMIR-C2 (fluorescence, NTA Zn2+ buffering system); assay type: binding
Experimental: (§1) FIGS. 3A-D. (FIG. 3A) Absorption spectrum of ZIMIR-C2. (FIG. 3B) Zn^2+ dependent fluorescence enhancement of ZIMIR-C2. Zn^2+ concentrations (nM) were 0, 43, 140, 440, 840, 1640 and 6440 (from bottom to top). (FIG. 3C) Zn^2+ titration of ZIMIR-C2 as measured from its emission at 515 nm. The solid line represents the exponential fit. […] All measurements were performed in buffers containing 100 mM Hepes, pH 7.5 with 0.4 μM of ZIMIR-C2.
Zn^2+ titration and ion selectivity of ZIMIR. To measure the Zn^2+ affinity of ZIMIR, we performed Zn2+ titration of ZIMIR-C2 (0.4 μM) using a Zn^2+ buffering system based on nitrilotriacetic acid (NTA) (Komatsu et al., 2005). The buffer contained 100 mM HEPES (pH 7.5), 10 mM NTA and varying concentrations of ZnSO4 (0-9 mM) to reach free Zn2+ concentration between 0.1 nM to 43 nM. Zn^2+ concentrations above 43 nM were not buffered. However, since the commercial Hepes always contains a trace amount of divalent metal (≦5 ppm), it was necessary to add a minimum amount of NTA to chelate the residual Zn^2+ present in the Hepes solution. […] From that point, increasing amount of ZnSO4 was added to reach higher Zn^2+ concentrations. […] To examine the Zn^2+ binding selectivity of ZIMIR against Ca^2+ or Mg^2+, we measured the fluorescence intensity of ZIMIR-C2 in a nominally Zn^2+ free solution containing 50 μM DPAS or in a solution containing 1 μM ZnCl2, with or without Ca^2+/Mg^2+ (1 mM).

[5] = Zn2+ binding selectivity of ZIMIR-C2 against Ca2+ or Mg2+ (fluorescence intensity); conditions: Ca^2+ 1 mM, Mg^2+ 1 mM; with or without 1 μM ZnCl2
Experimental: as §1
Zn^2+ titration and ion selectivity of ZIMIR. To measure the Zn^2+ affinity of ZIMIR, we performed Zn2+ titration of ZIMIR-C2 (0.4 μM) using a Zn^2+ buffering system based on nitrilotriacetic acid (NTA) (Komatsu et al., 2005). The buffer contained 100 mM HEPES (pH 7.5), 10 mM NTA and varying concentrations of ZnSO4 (0-9 mM) to reach free Zn2+ concentration between 0.1 nM to 43 nM. Zn^2+ concentrations above 43 nM were not buffered. However, since the commercial Hepes always contains a trace amount of divalent metal (≦5 ppm), it was necessary to add a minimum amount of NTA to chelate the residual Zn^2+ present in the Hepes solution. […] To examine the Zn^2+ binding selectivity of ZIMIR against Ca^2+ or Mg^2+, we measured the fluorescence intensity of ZIMIR-C2 in a nominally Zn^2+ free solution containing 50 μM DPAS or in a solution containing 1 μM ZnCl2, with or without Ca^2+/Mg^2+ (1 mM).

[6] = Absorption, fluorescence and solubility properties of ZIMIR-C2 in aqueous solution; assay type: physicochemical
Experimental: as §1
The inventors synthesized ZIMIR in a total of 8 steps (FIG. 2). […] The absorption maximum of ZIMIR-C2 centered around 493 nm with an extinction coefficient of 73,000 M-1 cm-1. At low nanomolar [Zn^2+], ZIMIR-C2 was nearly non-fluorescent (fluorescence quantum yield Qf (0 Zn^2+) =0.0032) (FIGS. 3A-D). Its fluorescence intensity increased with [Zn^2+]and reached a plateau at micromolar [Zn^2+], with an overall fluorescence enhancement of 70-fold upon Zn^2+ complexation (Qf (Zn^2+) =0.225), providing a Zn^2+ binding dissociation constant of 0.45 μM (FIG. 3C). To confirm that

pancreatic islets = experiment: Confocal imaging of dye uptake and insulin/Zn2+ release in pancreatic islets; assay type: cell-based, mouse; conditions: ZIMIR 2 μM for 25 min; mouse and human islets
Experimental: FIGS. 8A-C. Imaging insulin/Zn^2+ release in islets by confocal laser scanning microscopy. (FIGS. 8A-B) Confocal images of mouse islets labeled with ZIMIR (FIG. 8A) or calcein/AM (FIG. 8B). (FIG. 8C) Confocal ZIMIR imaging of insulin/Zn^2+ release in a mouse islet bathed in SAB. Images from two example layers 15 μm apart before and 10 sec post KCl (40 mM) stimulation were shown.
FIG. 11. ZIMIR rapidly labels cells of intact human islets. Representative CLSM images of a ZIMIR labeled human islet at three focal planes 20 μm apart.
Islets labeling and ZIMIR imaging by confocal laser scanning microscopy. Experiments with rodent animals were carried out according to protocols approved by the Institutional Animal Care and Use Committee of University of Texas Southwestern Medical Center. Rodent islets were isolated from Sprague-Dawley rats or C57BL/6 mice after digesting exocrine tissues of pancreas using collagenase as described below. To image insulin release in islets, the inventors labeled islets with ZIMIR (final concentration 2 μM with 0.025% Pluronic) in SAB buffer for […]. Labeled islets were then transferred to an imaging dish that had been coated with 0.5% PuraMatrix peptide hydrogel (BD Biosciences, Cat # 354250). Islets adhered to the PuraMatrix hydrogel within 5 min. They then imaged ZIMIR fluorescence by confocal laser scanning microscopy using a LSM510 imaging system (Carl Zeiss) and a 40× oil immersion objective (Dakin and Li, 2007).
Confocal imaging of ZIMIR uptake and insulin/Zn^2+ release in pancreatic islets. In addition to cultured cells, ZIMIR also rapidly and noninvasively labels cells in preparations such as dissected pancreatic islets. After loading islets with ZIMIR (2 μM) for 25 min, the inventors applied CLSM to track the distribution of ZIMIR in three dimensions (3D). […] The result confirmed that ZIMIR readily diffused through the interstitial space to reach interior cells, whereas calcein/AM was trapped by cells in the outer layer, unable to penetrate any deeper. After labeling, the inventors depolarized cells with high concentration of KCl.

## O=S(=O)(O)CCN(Cc1ccccn1)Cc1ccccn1 [DPAS, 2-[Bis(2-pyridinylmethyl)amino]-ethanesulfonic acid]
INS-1 cells
  increase of the rate of Zn^2+ dissipation from the plasma membrane: about one order of magnitude
[1]
  Zn^2+ chelation kinetics compared with EDTA: much faster kinetics than EDTA

## COc1ccc(N(CC(=O)O)CC(=O)O)c(OCCOc2cc(-c3c4cc(F)c(=O)cc-4oc4cc(O)c(F)cc34)ccc2NCC(=O)O)c1 [FluoZin-3]
[2]
  Kd: 15 nM
[3]
  Kd: ~10000 nM

## CCN(CC(=O)O)Cc1c2oc3c(CN(CC)CC(=O)O)c(O)ccc3c(-c3cc(NCCN(CCc4ccccn4)Cc4ccccn4)ccc3C(=O)O)c-2ccc1=O [ZIMIR-C2]
[4]; 0.4 μM ZIMIR-C2, 100 mM HEPES pH 7.5, two independent titrations, read-out: Kd(Zn^2+), independent Zn^2+ titrations
  Kd: 433 nM and 467 nM
[4]; FIG. 3C, emission at 515 nm, read-out: Zn^2+ binding dissociation constant
  Kd: 450 nM
[4]; average of two titrations, 100 mM HEPES pH 7.5, read-out: average Kd(Zn^2+)
  Kd: 450 nM
[4]; plateau at micromolar [Zn^2+]
  overall fluorescence enhancement upon Zn^2+ complexation: 70 fold
[5]
  effect of Ca^2+ and Mg^2+ on fluorescence / Zn^2+ selectivity: neither Ca^2+ nor Mg^2+ affected ZIMIR-C2 fluorescence; also recorded: binds Zn^2+ selectively against Ca^2+ (1 mM) and Mg^2+ (1 mM)
[6]; 100 mM Hepes, pH 7.5
  absorption maximum: around 493 nm
[6]; aqueous solutions
  aqueous solubility: highly soluble
[6]; at absorption maximum
  extinction coefficient: 73,000 M-1 cm-1
[6]; low nanomolar [Zn^2+]
  fluorescence quantum yield Qf (0 Zn^2+): 0.0032
[6]; upon Zn^2+ complexation, micromolar [Zn^2+]
  fluorescence quantum yield Qf (Zn^2+): 0.225

## calcein/AM [reference compound]
Pancreatic islets
  distribution of dye in islets (3D, CLSM): only labeled cells of the superficial layers
